Measured values: patent US7371769B2, “Tetrahydropyridin-4-yl indoles with a combination of affinity for dopamine-D2 receptors and serotonin reuptake sites” (Solvay Pharmaceuticals B.V., priority 2004, dated 2008)
Counter-ions that a name gives are not always drawn.

Assays:
serotonin reuptake sites = molecular target: T1, serotonin reuptake sites (Rattus norvegicus, UniProt P31652); assay: In vitro affinity for serotonin reuptake sites ([3H]-paroxetine binding assay); conditions: read-out: 5-HT reuptake pKi (converted)
T1 construct: from tissue; host or cells: rat cortical membranes (from the title of the cited method only)
Experimental: In vitro Affinity for Serotonin Reuptake Sites
Affinity of the compounds for serotonin reuptake sites was determined using the receptor binding assay described by E. Habert et al.,: “Characterisation of [^3H]-paroxetine binding to rat cortical membranes”, Eur. J. Pharmacol., 118, 107-114, 1985.
(§1) The affinity of the compounds of the invention for dopamine-D2 receptors and serotonine reuptake sites was determined as described above. From the binding affinity measured for a given compound of formula (1), one can estimate a theoretical lowest effective dose. At a concentration of the compound equal to twice the measured Ki-value, 100% of the receptors likely will be occupied by the compound. Converting that concentration to mg of compound per kg of patient yields a theoretical lowest effective dose, assuming ideal bioavailability. Pharmacokinetic, pharmacodynamic, and other considerations may alter the dose actually administered to a higher or lower value. The dosage expediently administered is 0.001-1000 mg/kg, preferably 0.1-100 mg/kg of patient's bodyweight.

dopamine-D2 receptors = molecular target: T2, dopamine-D2 receptors (Rattus norvegicus, UniProt P61169); assay: In vitro affinity for dopamine-D2 receptors ([3H]-spiroperidol receptor binding assay); conditions: read-out: Dopamine-D2 pKi (converted)
T2 construct: labels dopamine receptors in rat pituitary and brain; from tissue; host or cells: rat pituitary / brain (from the title of the cited method only)
Experimental: In vitro Affinity for Dopamine-D2 Receptors
Affinity of the compounds for dopamine-D2 receptors was determined using the receptor binding assay described by I. Creese, R. Schneider and S. H. Snyder: “[^3H]-Spiroperidol labels dopamine receptors in rat pituitary and brain”, Eur. J. Pharmacol., 46, 377-381,1977.
as §1

T2 sequence (P61169 whole entry): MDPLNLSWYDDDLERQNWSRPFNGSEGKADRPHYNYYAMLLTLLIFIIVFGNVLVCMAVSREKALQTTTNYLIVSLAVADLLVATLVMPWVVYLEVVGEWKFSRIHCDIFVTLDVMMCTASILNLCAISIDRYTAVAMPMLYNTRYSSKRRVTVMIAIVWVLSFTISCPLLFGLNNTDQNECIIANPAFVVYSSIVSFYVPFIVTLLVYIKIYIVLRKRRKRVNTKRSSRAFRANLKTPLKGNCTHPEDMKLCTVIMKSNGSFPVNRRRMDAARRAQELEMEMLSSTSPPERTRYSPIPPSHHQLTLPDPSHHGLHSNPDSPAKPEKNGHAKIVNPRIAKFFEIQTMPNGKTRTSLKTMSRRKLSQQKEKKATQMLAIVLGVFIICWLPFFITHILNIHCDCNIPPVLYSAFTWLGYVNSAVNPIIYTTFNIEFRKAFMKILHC
T1 sequence (P31652 whole entry): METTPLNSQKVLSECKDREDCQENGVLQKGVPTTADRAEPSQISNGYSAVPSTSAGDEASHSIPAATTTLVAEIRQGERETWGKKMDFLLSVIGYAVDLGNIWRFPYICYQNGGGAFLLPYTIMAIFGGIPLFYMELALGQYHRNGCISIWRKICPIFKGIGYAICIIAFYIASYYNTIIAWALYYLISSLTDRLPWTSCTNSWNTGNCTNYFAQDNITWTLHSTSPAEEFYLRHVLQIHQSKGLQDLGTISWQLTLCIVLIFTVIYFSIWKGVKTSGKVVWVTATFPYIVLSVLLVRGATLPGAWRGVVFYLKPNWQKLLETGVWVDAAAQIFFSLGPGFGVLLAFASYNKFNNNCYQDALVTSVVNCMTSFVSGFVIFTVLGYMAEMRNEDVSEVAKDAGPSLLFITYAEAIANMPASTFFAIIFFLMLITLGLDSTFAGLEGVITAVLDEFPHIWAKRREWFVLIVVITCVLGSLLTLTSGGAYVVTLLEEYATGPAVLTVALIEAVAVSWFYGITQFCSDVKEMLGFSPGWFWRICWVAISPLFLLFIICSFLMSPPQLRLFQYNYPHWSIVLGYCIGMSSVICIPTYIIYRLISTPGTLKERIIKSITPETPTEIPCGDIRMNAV

Q: Which melting point does the source give for Cc1nc2ccccn2c(=O)c1CCN1CC=C(c2c[nH]c3ccccc23)CC1 (as salt: HCl) [Compound 1] here?
A: Its melting point is 205 °C (dec.).

Q: With Cc1ccn2c(=O)c(CCN3CC=C(c4c[nH]c5ccccc45)CC3)c(C)nc2c1 (as salt: HCl) [Compound 15] as the compound, how does the melting point read?
A: Its melting point is 261 to 264 °C.

Q: For COc1nc(C)c(CCN2CC=C(c3c[nH]c4ccccc34)CC2)c(=O)n1C (as salt: HCl) [Compound 18, 5-[2-[4-(1H-indol-3-yl)-1,2,3,6-tetrahydropyridin-1-yl]ethyl]-2-methoxy-3,6-dimethyl-3H-pyrimidin-4-one], which melting point is on record?
A: Its melting point is 209 to 211 °C.

Q: With CSc1nc(C)c(CCN2CC=C(c3c[nH]c4ccccc34)CC2)c(=O)n1C (as salt: salt) as the compound, how does the melting point read?
A: Its melting point is 245 to 246 °C.

Q: With Cc1nc2c(C)cccn2c(=O)c1CCN1CC=C(c2c[nH]c3ccc(F)cc23)CC1 (as salt: salt) as the compound, how does the melting point read?
A: Its melting point is 229 to 230 °C.

Q: With Cc1nc2ccccn2c(=O)c1CCN1CC=C(c2c[nH]c3ccc(F)cc23)CC1 (as salt: salt) [Compound 7] as the compound, how does the melting point read?
A: The melting point was 226 to 227 °C (dec.).

Q: With CSc1nc(C)c(CCN2CC=C(c3c[nH]c4ccc(F)cc34)CC2)c(=O)n1C (as salt: salt) [Compound 19] as the compound, how does the melting point read?
A: Its melting point is 229 °C (dec.).

Q: Which melting point does the source give for Cc1nc2c(C)cccn2c(=O)c1CCN1CC=C(c2c[nH]c3ccccc23)CC1 (as salt: salt) [Compound 22, 3-[2-[4-(1H-indol-3-yl)-1,2,3,6-tetrahydropyridin-1-yl]-ethyl]-2,9-dimethyl-4H-pyrido[1,2-a]pyrimidin-4-one] here?
A: The melting point was 242 to 246 °C.

Q: With CCc1ccn2c(=O)c(CCN3CC=C(c4c[nH]c5ccc(F)cc45)CC3)c(C)nc2c1 (as salt: salt) [Compound 24] as the compound, how does the melting point read?
A: Its melting point is 198 to 201 °C.

Q: With Cc1nc2cc(-c3ccccc3)ccn2c(=O)c1CCN1CC=C(c2c[nH]c3ccccc23)CC1 (as salt: salt) [Compound 27] as the compound, how does the melting point read?
A: Its melting point is 211 to 224 °C.

Q: For Cc1ncn(C)c(=O)c1CCN1CC=C(c2c[nH]c3ccc(F)cc23)CC1 (as salt: salt) [Compound 33], which melting point is on record?
A: The melting point was 234 to 235 °C (dec.).

Q: What does the source list for Cc1nc2ccccn2c(=O)c1CCN1CC=C(c2c[nH]c3ccccc23)CC1 [Compound 1]?
A: Ki (serotonin reuptake sites): 1.58 nM; Ki (dopamine-D2 receptors): 20 nM

Q: Which results are given for Cc1nc2ccccn2c(=O)c1CCN1CC=C(c2c[nH]c3ccc(F)cc23)CC1 [Compound 7]?
A: Ki (serotonin reuptake sites): 0.316 nM; Ki (dopamine-D2 receptors): 15.8 nM

Q: Which Ki (serotonin reuptake sites) does the source give for Cc1nc2n(c(=O)c1CCN1CC=C(c3c[nH]c4ccccc34)CC1)CCS2 [Compound 10] here?
A: The Ki was 1.58 nM.

Q: And the Ki (dopamine-D2 receptors)?
A: The Ki was 15.8 nM.

Q: For Cc1nc2sccn2c(=O)c1CCN1CC=C(c2c[nH]c3ccccc23)CC1 [Compound 11], which Ki (serotonin reuptake sites) is on record?
A: Its Ki is 2.51 nM.

Q: And the Ki (dopamine-D2 receptors)?
A: The Ki was 10 nM.

Q: Which Ki (serotonin reuptake sites) does the source give for CSc1nc(C)c(CCN2CC=C(c3c[nH]c4ccccc34)CC2)c(=O)[nH]1 [Compound 14] here?
A: The Ki was 50.1 nM.

Q: What about the Ki (dopamine-D2 receptors) of the same compound?
A: Its Ki is 100 nM.

Q: With Cc1ccn2c(=O)c(CCN3CC=C(c4c[nH]c5ccccc45)CC3)c(C)nc2c1 [Compound 15] as the compound, how does the Ki (serotonin reuptake sites) read?
A: Its Ki is 3.98 nM.

Q: What about the Ki (dopamine-D2 receptors) of the same compound?
A: The Ki was 7.94 nM.

Q: Which Ki (serotonin reuptake sites) does the source give for COc1nc(C)c(CCN2CC=C(c3c[nH]c4ccccc34)CC2)c(=O)n1C [Compound 18, 5-[2-[4-(1H-indol-3-yl)-1,2,3,6-tetrahydropyridin-1-yl]ethyl]-2-methoxy-3,6-dimethyl-3H-pyrimidin-4-one] here?
A: The Ki was 0.794 nM.

Q: And the Ki (dopamine-D2 receptors)?
A: The Ki was 31.6 nM.

Q: Which results are given for CSc1nc(C)c(CCN2CC=C(c3c[nH]c4ccc(F)cc34)CC2)c(=O)n1C [Compound 19]?
A: Ki (serotonin reuptake sites): 25.1 nM; Ki (dopamine-D2 receptors): 6.31 nM

Q: With CSc1nc(C)c(CCN2CC=C(c3cn(C)c4ccccc34)CC2)c(=O)n1C [Compound 20] as the compound, how does the Ki (serotonin reuptake sites) read?
A: The Ki was 7.94 nM.

Q: What about the Ki (dopamine-D2 receptors) of the same compound?
A: Its Ki is 100 nM.

Q: Which Ki (serotonin reuptake sites) does the source give for Cc1ccn2c(=O)c(CCN3CC=C(c4c[nH]c5ccc(F)cc45)CC3)c(C)nc2c1 [Compound 21] here?
A: Its Ki is 0.158 nM.

Q: What about the Ki (dopamine-D2 receptors) of the same compound?
A: The Ki was 31.6 nM.

Q: What does the source list for Cc1nc2c(C)cccn2c(=O)c1CCN1CC=C(c2c[nH]c3ccccc23)CC1 [Compound 22, 3-[2-[4-(1H-indol-3-yl)-1,2,3,6-tetrahydropyridin-1-yl]-ethyl]-2,9-dimethyl-4H-pyrido[1,2-a]pyrimidin-4-one]?
A: Ki (serotonin reuptake sites): 1.58 nM; Ki (dopamine-D2 receptors): 7.94 nM

Q: For CCc1ccn2c(=O)c(CCN3CC=C(c4c[nH]c5ccc(F)cc45)CC3)c(C)nc2c1 [Compound 24], which Ki (serotonin reuptake sites) is on record?
A: Its Ki is 7.94 nM.

Q: And the Ki (dopamine-D2 receptors)?
A: The Ki was 10 nM.

Q: What does the source list for Cc1nc2cc(-c3ccccc3)ccn2c(=O)c1CCN1CC=C(c2c[nH]c3ccccc23)CC1 [Compound 27]?
A: Ki (serotonin reuptake sites): 0.316 nM; Ki (dopamine-D2 receptors): 63.1 nM

Q: For Cc1ncn(C)c(=O)c1CCN1CC=C(c2c[nH]c3ccc(F)cc23)CC1 [Compound 33], which Ki (serotonin reuptake sites) is on record?
A: Its Ki is 3.16 nM.

Q: What about the Ki (dopamine-D2 receptors) of the same compound?
A: The Ki was 50.1 nM.
